The record followed here is patent US6689798B2, “Benzofuran derivatives” (Daiichi Pharmaceutical Co., Ltd., priority 2000, dated 2004).

In series [1] the target is T1, steroid 17α-hydroxylase and/or steroid C17-20 lyase (Rattus norvegicus, UniProt P11715).
T1 construct: the testis of rats (SD, male) was homogenized and centrifuged to obtain microsome; from tissue; host or cells: rat (SD, male) testis microsomes
T1 sequence (P11715 1-507): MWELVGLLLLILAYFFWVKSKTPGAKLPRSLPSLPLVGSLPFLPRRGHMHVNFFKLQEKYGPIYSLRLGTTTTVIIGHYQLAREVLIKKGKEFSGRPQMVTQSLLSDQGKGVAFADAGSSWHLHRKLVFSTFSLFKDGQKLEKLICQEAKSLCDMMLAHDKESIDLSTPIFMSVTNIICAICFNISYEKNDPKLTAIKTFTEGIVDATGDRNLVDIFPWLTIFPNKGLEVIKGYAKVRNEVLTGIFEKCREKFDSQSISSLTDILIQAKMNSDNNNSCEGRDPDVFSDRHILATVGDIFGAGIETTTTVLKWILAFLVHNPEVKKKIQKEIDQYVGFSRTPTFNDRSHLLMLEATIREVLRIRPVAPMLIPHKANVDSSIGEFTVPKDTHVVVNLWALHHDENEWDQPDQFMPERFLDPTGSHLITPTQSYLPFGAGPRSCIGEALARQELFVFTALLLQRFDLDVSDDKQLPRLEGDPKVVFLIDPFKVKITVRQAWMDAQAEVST
The series is described as follows: Measurement of steroid 17α-hydroxylase and/or steroid C17-20 lyase inhibitory activity (rat testis microsome). It counts as biochemical. The settings on record: test compound 300 nM, substrate 25 μM 17α-hydroxyprogesterone, NADPH 500 μM. How it is done:
An experiment was carried out according to the method of T. Sergejew and R. W.
Hartmann (J. Enzyme Inhibition, 8, 113 (1994)). That is, the testis of rats (SD, male) was homogenized and centrifuged to obtain microsome. Each compound of the present invention prepared in Examples 1-13 was put into a micro tube (1.5 ml, Eppendorf Co.). After the addition of 100 μl of microsome protein solution, the concentration of which was adjusted to 0.1 mg/ml using 50 mM phosphate buffer solution (pH 7.4), 140 μl of 125 nmol NADPH solution, and 10 μl of 6.25 nmol 17α-hydroxyprogesterone, the mixture was incubated at 37° C. for 20 minutes. 50 μl of 1N hydrochloric acid and 1000 μl of ethyl acetate were sequentially added to the mixture. The mixture was shaken and centrifuged. The ethyl acetate layer was then washed with 250 μl of 50 mM phosphate buffer solution (pH 7.4) and 50 μl of IN hydrochloric acid, centrifuged, and concentrated. The concentrate was dissolved in 100 μl of acetonitrile. 10 μl of this solution was charged to high performance liquid chromatography. The amounts of the substrate and the formed product (androstenedione and testosterone) were measured to determine the enzyme activity. A sample without the test compound added was provided as a control. Steroid 17α-hydroxylase and/or steroid C17-20 lyase inhibitory activity (%) was calculated from the amounts of each substrate and product using the following equation (1). [formula]

Where a name gives a salt, the structure may show the parent alone.

As usually defined, the inhibition is the change of the read-out against control, counted positive when it falls. Read a low inhibition as little suppression. Molecule `c1cncc(-c2coc3cc(-c4ccsc4)ccc23)c1` [Example 13, 3-[6-(3-thienyl)benzo[b]furan-3-yl]pyridine hydrochloride] registered an inhibition at 0.3 µM in series [1] of 89%.
`Oc1ccc(-c2ccc3c(-c4cccnc4)coc3c2)cc1O` [Example 12, 4-[3-(3-pyridyl)benzo[b]furan-6-yl]-1,2-benzenediol hydrobromide] gave an inhibition at 0.3 µM in series [1] of 66%.
In series [1], `c1ccc(-c2ccc3c(-c4cccnc4)coc3c2)cc1` [Example 9, 3-(6-phenylbenzo[b]furan-3-yl)pyridine] yielded an inhibition at 0.3 µM of 45%.
In general, melting point refers to the temperature, or range, at which the solid turns liquid. `c1cncc(-c2ccc3c(-c4cccnc4)coc3c2)c1` [Example 7, 3-[6-(3-pyridyl)benzo[b]furan-3-yl]pyridine] returned a melting point of 140.5 to 141.5 °C. In series [1], this molecule registered an inhibition at 0.3 µM of 75%.
Molecule `Nc1cccc(-c2ccc3c(-c4cccnc4)coc3c2)c1` [Example 6, 3-[3-(3-pyridyl)benzo[b]furan-6-yl]phenylamine] gave an inhibition at 0.3 µM in series [1] of 90%.
For the molecule `Fc1cccc(-c2ccc3c(-c4cccnc4)coc3c2)c1` [Example 4, 3-[6-(3-fluorophenyl)benzo[b]furan-3-yl] Pyridine], the inhibition at 0.3 µM in series [1] is 45%.
In the case of `Fc1ccc(-c2ccc3c(-c4cccnc4)coc3c2)cc1` [Example 3, 3-[6-(4-fluorophenyl)benzo[b]furan-3-yl] Pyridine], the inhibition at 0.3 µM in series [1] is 64%.
In series [1], `Oc1cccc(-c2ccc3c(-c4cccnc4)coc3c2)c1` [Example 11, 3-[3-(3-pyridyl)benzo[b]furan-6-yl]phenol] displayed an inhibition at 0.3 µM of 81%.
